Experimental data reported in the supplement of paper PMC9103864.

Tests used:
[1] = tested on: BMSC (primary human bone marrow mesenchymal stromal cells); test: absolute EC50 for viability; higher = less sensitive
[2] = tested on: BMSC (primary human bone marrow mesenchymal stromal cells); test: drug sensitivity score (DSS); higher = more sensitive

| Structure (SMILES) | absolute EC50 for viability [1] | drug sensitivity score [2] |
| --- | --- | --- |
| COCCNCc1ccc(-c2cc3nccc(Oc4ccc(NC(=O)C5(C(=O)Nc6ccc(F)cc6)CC5)cc4F)c3s2)nc1 [Sitravatinib] | > 2500 nM | 7.7 |
| Cc1nc(C(=O)NCC(=O)O)c(O)c2ccc(Oc3ccccc3)cc12 [Roxadustat] | > 10000 nM | 0.5 |
| Cc1cc(C)c(CNC(=O)c2cc(-c3ccc(CN4CCOCC4)cc3)cc3c2cnn3C2CCCC2)c(=O)[nH]1 [EPZ-5687] | 9930 nM | 0 |
| Cc1ccc(NC(=O)c2ccc(CN3CCN(C)CC3)cc2)cc1Nc1nc(-c2cccnc2)cs1 [Masitinib] | 2860 nM | 8.8 |
| CC(=O)[C@]1(O)Cc2c(O)c3c(c(O)c2[C@@H](O[C@H]2C[C@H](N)[C@H](O)[C@H](C)O2)C1)C(=O)c1ccccc1C3=O [Idarubicin] | 233 nM | 6.6 |
| C=CC(=O)Nc1cccc(Oc2nc(Nc3ccc(N4CCN(C)CC4)cc3)nc3ccsc23)c1 [Olmutinib] | > 1000 nM | 0 |
| CS(=O)(=O)c1ccc(C(=O)Nc2ccc(Cl)c(-c3ccccn3)c2)c(Cl)c1 [Vismodegib] | > 10000 nM | 0 |
| Cn1cc(CNCC2CCN(c3ncc(C(=O)NO)cn3)CC2)c2ccccc21 [Quisinostat] | 181 nM | 8.3 |
| CN1CCc2c(c3ccccc3n2Cc2ccc(C(=O)NO)cc2)C1 [Tubastatin A] | 9930 nM | 0 |
| Cc1c(Cn2c(C)nc3c(C(=O)O)cc(N4CCOCC4)cc32)cccc1C(F)(F)F | > 10000 nM | 0 |
| N#CCNC(=O)c1ccc(-c2ccnc(Nc3ccc(N4CCOCC4)cc3)n2)cc1 [Momelotinib] | > 10000 nM | 5.1 |
| O=C(Nc1cnn2ccc(N3CCC[C@@H]3c3cc(F)ccc3F)nc12)N1CC[C@H](O)C1 [Larotrectinib] | > 1000 nM | 0 |
| C[C@@H](Oc1cc(-n2cnc3ccc(CN4CCN(C)CC4)cc32)sc1C(N)=O)c1ccccc1C(F)(F)F | 1890 nM | 8 |
| CN1CCC(COc2cnc(-c3cccc(Cn4nc(-c5cccc(C#N)c5)ccc4=O)c3)nc2)CC1 [Tepotinib] | > 1000 nM | 0.3 |
| COC(=O)N[C@@H](C)CNc1nccc(-c2cn(C(C)C)nc2-c2cc(Cl)cc(NS(C)(=O)=O)c2F)n1 [Encorafenib] | > 1000 nM | 0 |
| Cc1cc(C(C)Nc2ccccc2)c2nc(N3CCOCC3)cc(=O)n2c1 (centres undefined) [TGX-221] | > 10000 nM | 0.3 |
| CCCN(CCC)C(=O)C1=Cc2ccc(-c3ccc(C(=O)N4CCCC4)cc3)cc2N=C(N)C1 [Motolimod] | 9930 nM | 0 |
| CCNC(=O)c1noc(-c2cc(C(C)C)c(O)cc2O)c1-c1ccc(CN2CCOCC2)cc1 [Luminespib] | 15.2 nM | 16.8 |
| O=C(NC1CCNCC1)c1n[nH]cc1NC(=O)c1c(Cl)cccc1Cl [AT7519] | 462 nM | 12.2 |

| Structure (SMILES) | absolute EC50 for viability [1] | drug sensitivity score [2] |
| --- | --- | --- |
| C[C@H]1C[C@@H]2[C@H]([C@@H](O)C[C@@]3(C)[C@H]2CC[C@]3(O)C(=O)CO)[C@@]2(C)C=CC(=O)C=C12 [Methylprednisolone] | > 10000 nM | 0 |
| CC[C@@]1(O)C(=O)OCc2c1cc1n(c2=O)Cc2cc3c(CN(C)C)c(O)ccc3nc2-1 [Topotecan] | > 10000 nM | 4.4 |
| C[C@@H](Oc1cc(-c2cnn(C3CCNCC3)c2)cnc1N)c1c(Cl)ccc(F)c1Cl [Crizotinib] | > 1000 nM | 0.2 |
| c1cn2cc(-c3ccc4cn[nH]c4c3)nc(Nc3ccc(N4CCOCC4)cc3)c2n1 [Entospletinib] | > 5000 nM | 0 |
| Oc1nc(-c2ccc(C(F)(F)F)cc2)nc2c1CSCC2 [XAV-939] | > 10000 nM | 1.5 |
| COc1cccc2c1C(=O)c1c(O)c3c(c(O)c1C2=O)C[C@@](O)(C(=O)CO)C[C@@H]3O[C@H]1C[C@H](N)[C@@H](O)[C@H](C)O1 [Epirubicin] | 249 nM | 6.4 |
| CC[C@@H]1C(=O)OC[C@@H]1Cc1cncn1C [Pilocarpine] | > 40000 nM | 0 |
| CCOCc1nc2c(N)nc3ccccc3c2n1CC(C)(C)O [Resiquimod] | > 10000 nM | 0 |
| COc1cc2ncnc(Nc3cccc(Cl)c3F)c2cc1OC(=O)N1CCN(C)C[C@H]1C [AZD3759] | > 1000 nM | 0 |
| CN(C)CCOc1ccc(/C(=C(/CCCl)c2ccccc2)c2ccccc2)cc1 [Toremifene] | > 10000 nM | 0 |
| Cc1cc(-c2ncc(CC(=O)Nc3ccc(-c4cnccn4)cn3)cc2C)ccn1 [NVP-LGK974] | > 10000 nM | 0.4 |
| CCc1c(C(=O)C(N)=O)c2c(OCC(=O)O)cccc2n1Cc1ccccc1 [Varespladib] | > 10000 nM | 0 |
| CC/C(=C(\c1ccccc1)c1ccc(OCCN(C)C)cc1)c1ccccc1 [Tamoxifen] | > 10000 nM | 0 |
| COCC[n+]1c2c(n(Cc3cnccn3)c1C)C(=O)c1ccccc1C2=O [Sepantronium bromide] | 70.5 nM | 25.4 |
| O=c1[nH]c(=O)n([C@H]2C[C@H](O)[C@@H](CO)O2)cc1F [Floxuridine] | > 10000 nM | 0 |
| COc1cc2c(Nc3ccc(Cl)c(Cl)c3F)ncnc2cc1OC[C@@H]1C[C@@H]2CN(C)C[C@@H]2C1 [Tesevatinib] | > 1000 nM | 4.1 |
| CN1CCN(c2ccc3nc(-c4c(N)c5c(F)cccc5[nH]c4=O)[nH]c3c2)CC1 [Dovitinib] | > 10000 nM | 0.9 |
| CC(C)N(C[C@H]1O[C@@H](n2cnc3c(N)ncnc32)[C@H](O)[C@@H]1O)[C@H]1C[C@@H](CCc2nc3cc(C(C)(C)C)ccc3[nH]2)C1 [Pinometostat] | > 1000 nM | 0 |
| Cc1cnc(-c2ccccc2C(C)C)nc1NCc1ccc(-n2ccnn2)cc1 [ML323] | > 10000 nM | 0 |

| Structure (SMILES) | absolute EC50 for viability [1] | drug sensitivity score [2] |
| --- | --- | --- |
| COc1cc(Nc2ncc(F)c(Nc3ccc4c(n3)NC(=O)C(C)(C)O4)n2)cc(OC)c1OC [Tamatinib] | > 10000 nM | 4.2 |
| C=C1C[C@@H]2CC[C@@]34C[C@H]5O[C@H]6[C@@H](O3)[C@H]3O[C@H](CC[C@@H]3O[C@H]6[C@H]5O4)CC(=O)C[C@@H]3[C@@H](OC)[C@@H](C[C@H](O)CN)O[C@H]3C[C@H]3O[C@@H](CC[C@@H]1O2)C[C@@H](C)C3=C [Eribulin] | > 1000 nM | 12 |
| CC#CC(=O)N1CCC[C@H]1c1nc(-c2ccc(C(=O)Nc3ccccn3)cc2)c2c(N)nccn12 [Acalabrutinib] | > 1000 nM | 0 |
| CC(C)[C@@H](CS(=O)(=O)C(C)C)N1C(=O)[C@@](C)(CC(=O)O)C[C@H](c2cccc(Cl)c2)[C@H]1c1ccc(Cl)cc1 [AMG-232] | 186 nM | 18.7 |
| COc1cc(Nc2c(C#N)cnc3cc(OCCCN4CCN(C)CC4)c(OC)cc23)c(Cl)cc1Cl [Bosutinib] | 1690 nM | 8.8 |
| CC[C@@H]1[C@H](F)C(=O)N[C@@H]1COc1nccc2cc(C(N)=O)c(OC)cc12 | > 10000 nM | 0.3 |
| Cn1ncc(Cl)c1-c1cc(C(=O)N[C@H](CN)Cc2ccc(F)c(F)c2)oc1Cl [Uprosertib] | > 10000 nM | 2.4 |
| CC[C@@H]1CN(C(=O)NCC(F)(F)F)C[C@@H]1c1cnc2cnc3[nH]ccc3n12 [Upadacitinib] | > 10000 nM | 1.1 |
| CCOc1cc2ncc(C#N)c(Nc3ccc(OCc4ccccn4)c(Cl)c3)c2cc1NC(=O)/C=C/CN(C)C [Neratinib] | > 1000 nM | 2.3 |
| COc1cc2ncnc(Nc3ccc(F)c(Cl)c3)c2cc1NC(=O)/C=C/CN1CCCCC1 [Dacomitinib] | > 1000 nM | 2.2 |
| COc1ncc(-c2ccc3nccc(-c4ccnnc4)c3c2)cc1NS(=O)(=O)c1ccc(F)cc1F [Omipalisib] | 97.9 nM | 11.6 |
| CCCCCCCCc1ccc(CCC(N)(CO)CO)cc1 [Fingolimod] | 3020 nM | 5.8 |
| CCN(CC)CCNC(=O)c1c(C)[nH]c(/C=C2\C(=O)Nc3ccc(F)cc32)c1C [Sunitinib] | > 1000 nM | 5.6 |
| Cc1cnc(NC(=O)Nc2cc(Br)c(C)cc2OC[C@@H]2CNCCO2)cn1 [Rabusertib] | > 1000 nM | 0 |
| CC(C)n1nc(-c2ccc3oc(N)nc3c2)c2c(N)ncnc21 [Sapanisertib] | 75.9 nM | 11.4 |
| CO[C@H](C(=O)[C@@H](O)[C@@H](C)O)[C@@H]1Cc2cc3cc(O[C@H]4C[C@@H](O[C@@H]5C[C@@H](O)[C@H](O)[C@@H](C)O5)[C@H](O)[C@@H](C)O4)c(C)c(O)c3c(O)c2C(=O)[C@H]1O[C@H]1C[C@@H](O[C@@H]2C[C@@H](O)[C@@H](O[C@@H]3C[C@](C)(O)[C@H](O)[C@@H](C)O3)[C@@H](C)O2)[C@H](O)[C@@H](C)O1 [Plicamycin] | > 10000 nM | 2.1 |
| Nc1ncnc2c1nc(N)n2[C@@H]1O[C@H](CO)[C@@H](O)[C@H]1O [8-amino-adenosine] | 803 nM | 21.5 |
| N#CC[C@H](C1CCCC1)n1cc(-c2ncnc3[nH]ccc23)cn1 [Ruxolitinib] | > 10000 nM | 0.2 |
| CN1C(=O)N[C@H](Cc2c[nH]c3c(Cl)cccc23)C1=O [Necrostatin 2] | > 10000 nM | 0 |
